Experimental data taken from patent publication EP0244728B1, “Use of heteroarylethyl amines to stimulate animal growth, heteroarylethyl amines and process for their preparation” (BAYER AG, priority 1986, dated 1987).

Test: Rat feeding trial (Ratten-Fütterungsversuch), Beispiel A
Assay type: in vivo
Conditions: Dosis 100 ppm in feed ad lib; female SPF Wistar rats, 90-110 g; 13-day trial; control without active substance = 100
Description: Weibliche Laborratten 90-110 g schwer vom Typ SPF Wistar (Züchtung Hagemann) werden ad lib mit Standard Rattenfutter, das mit der gewünschten Menge Wirkstoff versetzt ist, gefüttert. Jeder Versuchsansatz wird mit Futter der identischen Charge durchgeführt, so daß Unterschiede in der Zusammensetzung des Futters die Vergleichbarkeit der Ergebnisse nicht beeinträchtigen können.
Die Ratten erhalten Wasser ad lib.
Jeweils 12 Ratten bilden eine Versuchsgruppe und werden mit Futter, das mit der gewünschten Menge Wirkstoff versetzt ist gefüttert. Eine Kontrollgruppe erhält Futter ohne Wirkstoff. Das durchschnittliche Körpergewicht sowie die Streuung in den Körpergewichten der Ratten ist in jeder Versuchsgruppe gleich, so daß eine Vergleichbarkeit der Versuchsgruppen untereinander gewährleistet ist.
Während des 13-tägigen Versuchs werden Gewichtszunahme und Futterverbrauch bestimmt.
For `CC(C)(C)NCC(O)c1cc(Cl)nc(Cl)c1` (stereo not shown) [compound 1], the Gewichtszunahme was 110.
Compound `CC(C)(C)NCC(O)c1cnc(N)c(Cl)c1` (stereo not shown) [compound 3] has a Gewichtszunahme of 115.
With `CC(C)(C)NCC(O)c1ccc(N)c(Cl)n1` (stereo not shown) [compound 6] the Gewichtszunahme was 110.
Compound `CC(C)NCC(O)c1ccc(N)cn1` (stereo not shown) [compound 7] has a Gewichtszunahme of 120.
